According to article PMC11040104, “The two C. elegans class VI myosins, SPE-15/HUM-3 and HUM-8, share similar motor properties, but have distinct developmental and tissue expression patterns” (Frontiers in Physiology, 2024):
Blank lines part the entries; values can stand above or below the compound they belong to.

Columns and labels:
[1] = biological target: T1, HUM-8 (Caenorhabditis elegans, UniProt U4PBY2); test: stopped-flow, ATP-induced dissociation of pyrene-actin.myosin; type: binding; settings: bound to pyrene-labelled rabbit F-actin, pH 7.0, 20 °C, 25 mM KCl, 5 mM MgCl2, not an affinity
T1 construct: motor-neck domain residues 61-904, N-terminal 6xHis, C-terminal GSG linker + RGSIDTWV tag kept; co-expressed with human calmodulin in ExpiSf9; with Actin, alpha skeletal muscle (rabbit, Oryctolagus cuniculus); Calmodulin (human light chain, co-expressed)
T1 sequence (U4PBY2 61-904): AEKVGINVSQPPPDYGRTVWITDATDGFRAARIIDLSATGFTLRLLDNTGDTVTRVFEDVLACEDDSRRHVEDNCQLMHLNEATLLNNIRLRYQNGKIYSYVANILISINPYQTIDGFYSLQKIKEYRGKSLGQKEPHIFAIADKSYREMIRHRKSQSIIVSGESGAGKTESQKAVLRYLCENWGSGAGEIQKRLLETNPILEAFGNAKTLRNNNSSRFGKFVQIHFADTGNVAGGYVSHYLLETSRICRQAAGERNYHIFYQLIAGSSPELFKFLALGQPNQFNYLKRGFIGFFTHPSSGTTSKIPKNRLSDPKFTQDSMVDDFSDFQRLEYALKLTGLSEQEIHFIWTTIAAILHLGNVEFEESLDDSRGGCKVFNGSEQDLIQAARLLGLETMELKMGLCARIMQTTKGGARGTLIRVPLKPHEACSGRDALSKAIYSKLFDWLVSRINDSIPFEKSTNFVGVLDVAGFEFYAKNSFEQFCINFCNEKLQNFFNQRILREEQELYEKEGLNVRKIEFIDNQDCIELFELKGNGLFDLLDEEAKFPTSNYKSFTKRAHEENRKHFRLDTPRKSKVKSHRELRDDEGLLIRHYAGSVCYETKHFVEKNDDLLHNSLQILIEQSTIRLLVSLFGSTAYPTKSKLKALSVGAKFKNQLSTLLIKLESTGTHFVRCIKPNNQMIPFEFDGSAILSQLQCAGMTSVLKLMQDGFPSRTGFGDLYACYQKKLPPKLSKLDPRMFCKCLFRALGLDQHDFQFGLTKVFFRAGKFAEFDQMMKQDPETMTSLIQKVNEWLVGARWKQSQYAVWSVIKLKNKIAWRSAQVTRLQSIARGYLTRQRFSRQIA

[2] = biological target: T2, SPE-15/HUM-3 (Caenorhabditis elegans, UniProt Q9TZI9); test: as above; type: binding; settings: bound to pyrene-labelled rabbit F-actin, pH 7.0, 20 °C, 25 mM KCl, 5 mM MgCl2, not an affinity
T2 construct: motor-neck domain residues 1-841, N-terminal 6xHis, C-terminal GSG linker + RGSIDTWV tag kept; co-expressed with human calmodulin in ExpiSf9; with Actin, alpha skeletal muscle (rabbit, Oryctolagus cuniculus); Calmodulin (human light chain, co-expressed)
T2 sequence (Q9TZI9 1-841): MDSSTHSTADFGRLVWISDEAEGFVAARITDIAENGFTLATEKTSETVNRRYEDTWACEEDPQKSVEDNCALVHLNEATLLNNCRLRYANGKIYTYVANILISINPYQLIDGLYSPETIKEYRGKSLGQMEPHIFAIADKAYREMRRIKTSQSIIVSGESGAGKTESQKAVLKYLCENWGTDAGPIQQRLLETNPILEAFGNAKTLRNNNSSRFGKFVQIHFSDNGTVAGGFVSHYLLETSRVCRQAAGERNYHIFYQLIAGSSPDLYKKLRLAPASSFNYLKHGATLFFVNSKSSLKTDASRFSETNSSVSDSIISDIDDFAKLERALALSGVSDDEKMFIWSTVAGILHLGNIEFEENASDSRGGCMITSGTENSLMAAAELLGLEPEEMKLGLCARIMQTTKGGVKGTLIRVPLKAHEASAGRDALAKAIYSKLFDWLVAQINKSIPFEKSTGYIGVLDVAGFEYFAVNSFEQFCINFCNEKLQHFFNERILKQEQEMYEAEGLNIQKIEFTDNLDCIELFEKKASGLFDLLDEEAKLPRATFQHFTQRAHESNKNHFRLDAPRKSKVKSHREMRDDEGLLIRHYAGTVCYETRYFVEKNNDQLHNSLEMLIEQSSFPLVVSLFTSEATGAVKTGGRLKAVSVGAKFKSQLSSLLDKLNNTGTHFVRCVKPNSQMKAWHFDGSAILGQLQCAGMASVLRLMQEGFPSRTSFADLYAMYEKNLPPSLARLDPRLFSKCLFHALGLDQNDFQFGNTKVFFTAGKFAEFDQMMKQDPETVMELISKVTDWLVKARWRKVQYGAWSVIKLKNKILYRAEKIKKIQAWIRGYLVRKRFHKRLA

[3] = biological target: T3, human MYO6 (Homo sapiens, UniProt Q9UM54); test: as above; type: binding; settings: bound to pyrene-labelled rabbit F-actin, pH 7.0, 20 °C, 25 mM KCl, 5 mM MgCl2, not an affinity
T3 construct: with Actin, alpha skeletal muscle (rabbit, Oryctolagus cuniculus); Calmodulin (light chain)
T3 sequence (Q9UM54 1-840 limits assumed): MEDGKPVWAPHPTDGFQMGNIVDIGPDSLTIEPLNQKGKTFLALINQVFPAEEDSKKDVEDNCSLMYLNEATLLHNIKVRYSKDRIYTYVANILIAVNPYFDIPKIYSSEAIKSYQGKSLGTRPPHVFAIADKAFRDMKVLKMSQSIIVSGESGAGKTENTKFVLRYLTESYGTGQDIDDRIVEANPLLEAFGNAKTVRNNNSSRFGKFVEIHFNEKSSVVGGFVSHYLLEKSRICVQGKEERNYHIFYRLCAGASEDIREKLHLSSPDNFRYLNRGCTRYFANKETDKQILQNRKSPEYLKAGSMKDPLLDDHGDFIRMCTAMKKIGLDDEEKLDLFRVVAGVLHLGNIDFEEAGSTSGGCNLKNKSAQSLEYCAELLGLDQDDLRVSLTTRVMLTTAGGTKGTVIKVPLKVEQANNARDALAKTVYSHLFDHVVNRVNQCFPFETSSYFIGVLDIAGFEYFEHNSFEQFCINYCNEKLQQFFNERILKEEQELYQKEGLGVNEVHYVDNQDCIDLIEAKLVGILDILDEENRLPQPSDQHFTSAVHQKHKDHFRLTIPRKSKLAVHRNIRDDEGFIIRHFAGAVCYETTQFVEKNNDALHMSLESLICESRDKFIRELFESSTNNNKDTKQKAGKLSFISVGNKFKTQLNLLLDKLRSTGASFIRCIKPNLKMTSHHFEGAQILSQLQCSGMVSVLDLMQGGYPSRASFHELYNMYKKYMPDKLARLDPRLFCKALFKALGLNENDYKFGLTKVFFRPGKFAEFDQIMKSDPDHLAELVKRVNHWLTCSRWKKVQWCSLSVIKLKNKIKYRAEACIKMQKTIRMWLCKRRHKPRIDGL

[4] = biological target: T3, human MYO6; test: stopped-flow pyrene-actin, ADP/ATP competition; type: binding; settings: bound to pyrene-labelled rabbit F-actin; competition with ATP; pH 7.0, 20 °C, 25 mM KCl, 5 mM MgCl2, probably misprint for µM; read-out: affinity for ADP
[5] = biological target: T1, HUM-8; test: stopped-flow pyrene-actin, ADP/ATP competition; type: binding; settings: bound to pyrene-labelled rabbit F-actin; competition with ATP; pH 7.0, 20 °C, 25 mM KCl, 5 mM MgCl2, probably misprint for µM; read-out: affinity for ADP
[6] = biological target: T2, SPE-15/HUM-3; test: stopped-flow pyrene-actin, ADP/ATP competition; type: binding; settings: bound to pyrene-labelled rabbit F-actin; competition with ATP; pH 7.0, 20 °C, 25 mM KCl, 5 mM MgCl2, probably misprint for µM; read-out: affinity for ADP
[7] = biological target: rabbit muscle actin, pyrene-labelled (F-actin) (rabbit) (UniProt P68135)
[8] = biological target: rabbit muscle actin, pyrene-labelled (F-actin) (rabbit) (UniProt P68135); test: other fluorescence titration; stopped-flow; amplitude of ATP-induced dissociation of pyrene-actin.myosin against myosin concentration, quadratic fit; 20°C, 20 mM MOPS pH 7.0, 25 mM KCl, 5 mM MgCl2, 1 mM DTT

Sequence of human MYO6 motor domain (Q9UM54 whole entry, the tested form may be a part): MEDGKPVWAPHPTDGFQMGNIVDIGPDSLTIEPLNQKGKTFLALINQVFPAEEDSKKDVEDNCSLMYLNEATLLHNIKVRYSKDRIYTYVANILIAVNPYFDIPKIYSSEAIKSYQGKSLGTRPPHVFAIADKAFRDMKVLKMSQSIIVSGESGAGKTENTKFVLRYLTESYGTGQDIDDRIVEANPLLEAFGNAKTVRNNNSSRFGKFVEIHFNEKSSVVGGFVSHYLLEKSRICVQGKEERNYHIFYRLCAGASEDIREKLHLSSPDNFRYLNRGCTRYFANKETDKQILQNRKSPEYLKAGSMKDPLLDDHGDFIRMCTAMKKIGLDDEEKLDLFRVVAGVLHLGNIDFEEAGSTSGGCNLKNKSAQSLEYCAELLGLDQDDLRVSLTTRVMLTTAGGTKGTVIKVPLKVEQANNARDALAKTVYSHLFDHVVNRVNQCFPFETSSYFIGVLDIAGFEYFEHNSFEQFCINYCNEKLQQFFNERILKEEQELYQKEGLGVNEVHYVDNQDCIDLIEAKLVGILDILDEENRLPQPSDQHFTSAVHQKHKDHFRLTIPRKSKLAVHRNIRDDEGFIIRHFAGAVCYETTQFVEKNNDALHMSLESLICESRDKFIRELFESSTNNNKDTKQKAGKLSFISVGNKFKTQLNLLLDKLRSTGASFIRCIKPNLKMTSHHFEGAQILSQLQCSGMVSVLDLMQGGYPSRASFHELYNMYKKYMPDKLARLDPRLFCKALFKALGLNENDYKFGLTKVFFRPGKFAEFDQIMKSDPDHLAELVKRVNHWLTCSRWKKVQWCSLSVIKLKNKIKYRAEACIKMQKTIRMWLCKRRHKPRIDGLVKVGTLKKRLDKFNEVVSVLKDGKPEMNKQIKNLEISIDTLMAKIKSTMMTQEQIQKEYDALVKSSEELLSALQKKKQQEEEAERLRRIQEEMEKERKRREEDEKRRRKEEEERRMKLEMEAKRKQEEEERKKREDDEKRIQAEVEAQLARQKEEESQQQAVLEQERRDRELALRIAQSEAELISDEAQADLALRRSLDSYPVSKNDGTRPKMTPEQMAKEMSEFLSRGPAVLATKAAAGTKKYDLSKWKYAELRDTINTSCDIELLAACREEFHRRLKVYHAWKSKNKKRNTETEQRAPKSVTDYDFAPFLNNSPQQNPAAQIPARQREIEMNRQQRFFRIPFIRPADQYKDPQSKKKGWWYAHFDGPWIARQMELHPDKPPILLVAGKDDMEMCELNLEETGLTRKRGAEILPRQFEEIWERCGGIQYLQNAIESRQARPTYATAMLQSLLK

apparent second order rate constant for ATP binding [1]: 3000 ± 500 M⁻¹ s⁻¹ | apparent second order rate constant for ATP binding [2]: 9000 ± 800 M⁻¹ s⁻¹ | apparent second order rate constant for ATP binding [3]: 5000 ± 400 M⁻¹ s⁻¹
Compound: Nc1ncnc2c1ncn2[C@@H]1O[C@H](COP(=O)(O)OP(=O)(O)OP(=O)(O)O)[C@@H](O)[C@H]1O [ATP]

Kd [4]: 6000 ± 800 µM | Kd [5]: 20000 ± 2000 µM | Kd [6]: 18000 ± 4000 µM
Compound: Nc1ncnc2c1ncn2[C@@H]1O[C@H](COP(=O)(O)OP(=O)(O)O)[C@@H](O)[C@H]1O [ADP]

in vitro motility assay: gliding velocity of rhodamine-phalloidin labelled actin filaments on surface-immobilised myosin [7]: 55 nm/s | Kd [8]: 15 nM
Compound: human MYO6 motor domain (from UniProt Q9UM54 1-1294) (domain or fragment)
